In article PMC9413440, “An Iterative Approach Guides Discovery of the FabI Inhibitor Fabimycin, a Late-Stage Antibiotic Candidate with In Vivo Efficacy against Drug-Resistant Gram-Negative Infections” (ACS Central Science, 2022):
In brackets after ≈: the same amount, converted by molar mass.

Assays:
[1] = test system: E. coli ΔtolC (JW5503); experiment: MIC, broth microdilution (CLSI); format: cell-based, Escherichia coli
Description: (§1) II. Materials and Methods for Biological Experiments
(§2) S. aureus ATCC 29213 and E. coli MG1655 were obtained from the American Type Culture Collection (ATCC). E. coli BW25113 and E. coli JW5503 were obtained from the Keio Collection. AR-bank strains were obtained from the Centers for Disease Control and Prevention and FDA Antibiotic Resistance Isolate Bank.
(§3) Antimicrobial susceptibility tests
(§4) Susceptibility testing was performed in biological triplicate, unless noted otherwise, using the micro-dilution broth method as outlined by the Clinical and Laboratory Standards Institute. Bacteria were cultured with cation-adjusted Mueller Hinton broth (Sigma Aldrich, catalogue number: 90922). […]
(§5) NH3: m/z 391.2 → 171.0. Fabimycin: m/z 405.3 → 145.3. Power analysis was not used to determine the number of replicates. Error bars represent the standard error of the mean of three biological replicates. All compounds evaluated in biological assays were ≥95% pure.

[2] = biological target: T1, E. coli FabI (Escherichia coli, UniProt P0AEK4); experiment: In vitro FabI enzymatic inhibition assay; format: biochemical; conditions: for Ki: EcFabI, Morrison's quadratic fit, 5 nM enzyme, read-out: Ki app
T1 construct: His(6) with TEV site (cleaved yes); made in house; host or cells: E. coli BL21(DE3)
Description: (§6) supplemented with 100 µg/mL ampicillin at 37°C until OD600 reached 0.6-0.7. The cells were induced with 1mM IPTG and incubated for 20 hours at 18°C and spun down at 8000 rpm for 15 minutes. Cell pellet was resuspended in the lysis buffer (50 mM Tris-HCl pH 8.0, 500 mM Na Cl, 20 mM imidazole, 10% glycerol, 0.5 mM TCEP, protease inhibitor and Lysonase) and passed through microfluidizer followed by centrifugation and filtration to remove cell debris. The clarified lysate was supplemented with 20 mM imidazole and passed over a HisTrap column (Cytiva) pre-equilibrated with the wash buffer (50 mM Tris-HCl pH 8.0, 500 mM NaCl, 20 mM imidazole, 10% glycerol, 0.5 mM TCEP). The column was washed with the wash buffer and eluted over a 20-500 mM imidazole gradient. The appropriate fractions were pooled, and the histidine tag was removed by TEV cleavage. The protein mixture was passed over a HisTrap column to separate the cleaved protein from the uncleaved ones. The cleaved protein was pooled and passed over an S75 size exclusion column (GE LifeSciences) pre-equilibrated with 50 mM Tris-HCl pH 8.0, 500 mM NaCl, 0.5 mM TCEP and 10% glycerol. Fractions containing pure protein were pooled, concentrated at 10 mg/mL and stored at -80°C. […]
(§7) In vitro FabI enzymatic inhibition assay
(§8) Recombinant E. coli and A. baummani FabI enzymes were used in a continuous NADH absorbance assay (20 µL in 384w format). Compounds and the Crotonyl-CoA substrate (Sigma–Aldrich 28007) were dispensed into a plate (GeinerBio-One 781101). The reaction was initiated by the addition of a reaction master mix solution containing enzyme and NADH (Sigma–Aldrich N8129) suspended in reaction buffer (50 mM HEPES pH 7.4, 150 mM NaCl, 1 mM EDTA, 0.01 mg/mL BSA, 0.01% Tween). Final concentrations were 5 nM enzyme, 150 μM Crotonyl-CoA, 380 μM NADH, 0.05% DMSO in 1x reaction buffer. After shaking for 5 seconds the reaction was monitored at NADH absorbance (340nm, 25°C) using a Molecular Devices SpectraMax M5 microplate reader. The linear portion of the progress curve was fit using plate-reader software. Percentage activity was calculated relative to DMSO only and no-substrate controls in each plate and the data were fit to Morrison’s quadratic using Graphpad Prism 9.3 to obtain apparent inhibition constant (Ki app) values. […]
(§9) 480 Real-Time PCR System as a function of a temperature ramp (25-95°C; 0.1°/s) and the Tm was calculated using the […]

[3] = biological target: A. baumannii FabI (Acinetobacter baumannii, UniProt D0CAD5); experiment: In vitro FabI enzymatic inhibition assay; format: biochemical; conditions: AbFabI; Morrison's quadratic fit; 5 nM enzyme; read-out: Ki app
Description: as §6, §7, §8, §9

[4] = test system: K. pneumoniae AR-0066; experiment: MIC, broth microdilution (CLSI); format: cell-based; conditions: Klebsiella pneumoniae, AR0066; K. pneumoniae AR-0066 clinical isolate
Description: as §1, §2, §3, §4, §5

[5] = test system: E. coli MG1655; experiment: MIC, broth microdilution (CLSI); format: cell-based; conditions: Escherichia coli
Description: as §1, §2, §3, §4, §5

[6] = test system: A. baumannii AR-0299; experiment: MIC, broth microdilution (CLSI); format: cell-based; conditions: Acinetobacter baumannii, AR0299; A. baumannii AR-0299 clinical isolate; † = dose-independent trailing growth
Description: as §1, §2, §3, §4, §5

[7] = test system: K. pneumoniae AR-0560; experiment: MIC, broth microdilution (CLSI); format: cell-based; conditions: Klebsiella pneumoniae, AR0560; K. pneumoniae AR-0560 clinical isolate
Description: as §1, §2, §3, §4, §5

[8] = test system: S. aureus ATCC 29213; experiment: MIC, broth microdilution (CLSI); format: cell-based; conditions: Staphylococcus aureus, ATCC29213; S. aureus 29213
Description: as §1, §2, §3, §4, §5

[9] = test system: A. baumannii AR-0033; experiment: MIC, broth microdilution (CLSI); format: cell-based; conditions: Acinetobacter baumannii, AR0033; A. baumannii AR-0033 clinical isolate; † = dose-independent trailing growth
Description: as §1, §2, §3, §4, §5

[10] = test system: E. coli AR-0085; experiment: MIC, broth microdilution (CLSI); format: cell-based; conditions: Escherichia coli, AR0085; E. coli AR-0085 clinical isolate
Description: as §1, §2, §3, §4, §5

[11] = test system: K. pneumoniae BAA-2472; experiment: MIC, broth microdilution (CLSI); format: cell-based; conditions: Klebsiella pneumoniae, BAA2472
Description: as §1, §2, §3, §4, §5

[12] = test system: E. coli AR-0048; experiment: MIC, broth microdilution (CLSI); format: cell-based; conditions: Escherichia coli, AR0048; E. coli AR-0048 clinical isolate
Description: as §1, §2, §3, §4, §5

[13] = test system: A. baumannii AR-0273; experiment: MIC, broth microdilution (CLSI); format: cell-based; conditions: Acinetobacter baumannii, AR0273; A. baumannii AR-0273 clinical isolate
Description: as §1, §2, §3, §4, §5

[14] = test system: A. baumannii AR-0313; experiment: MIC, broth microdilution (CLSI); format: cell-based; conditions: Acinetobacter baumannii, AR0313; A. baumannii AR-0313 clinical isolate; † = dose-independent trailing growth
Description: as §1, §2, §3, §4
(§10) Error bars represent the standard error of the mean of three biological replicates. All compounds evaluated in biological assays were ≥95% pure.

[15] = test system: K. pneumoniae AR-0113; experiment: MIC, broth microdilution (CLSI); format: cell-based; conditions: Klebsiella pneumoniae, AR0113; K. pneumoniae AR-0113 clinical isolate
Description: as §1, §2, §3, §4, §10

T1 sequence (P0AEK4 whole entry): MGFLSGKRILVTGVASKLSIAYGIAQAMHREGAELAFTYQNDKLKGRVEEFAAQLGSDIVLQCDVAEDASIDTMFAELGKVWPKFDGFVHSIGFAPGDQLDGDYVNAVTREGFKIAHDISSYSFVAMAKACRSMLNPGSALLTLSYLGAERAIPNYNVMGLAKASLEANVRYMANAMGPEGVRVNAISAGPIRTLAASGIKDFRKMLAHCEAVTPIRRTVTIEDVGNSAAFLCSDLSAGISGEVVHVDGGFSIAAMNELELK
Sequence of A. baumannii FabI (D0CAD5 entry or part of it): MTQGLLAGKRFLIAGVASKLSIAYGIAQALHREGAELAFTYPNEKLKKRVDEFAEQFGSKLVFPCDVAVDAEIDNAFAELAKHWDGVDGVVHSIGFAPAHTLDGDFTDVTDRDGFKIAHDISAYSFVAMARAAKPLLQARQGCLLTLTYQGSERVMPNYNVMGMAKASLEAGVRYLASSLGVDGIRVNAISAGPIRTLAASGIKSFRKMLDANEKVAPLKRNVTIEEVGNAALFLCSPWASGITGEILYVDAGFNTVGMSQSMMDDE

SMILES: Cc1c(CN(C)C(=O)/C=C/c2cnc3c(c2)CC[C@@H](N)C(=O)N3)oc2ccccc12 [(R)-7]
- MIC ([1]; Escherichia coli): 0.5 µg/mL (≈ 1.24 µM)
- Ki [2]: 38 ± 4 nM
- Ki [3]: 109 ± 14 nM
- MIC [4]: > 128 µg/mL
- MIC [5]: 64 µg/mL (≈ 158 µM)
- MIC [6]: > 128 µg/mL
- MIC [7]: > 128 µg/mL
- MIC [8]: 0.125 µg/mL (≈ 0.309 µM)
- MIC [9]: > 128 µg/mL
- MIC [10]: 128 µg/mL (≈ 316 µM)
- MIC [11]: > 128 µg/mL
- MIC [12]: 128 µg/mL (≈ 316 µM)
- MIC [13]: > 128 µg/mL
- MIC [14]: > 128 µg/mL
- MIC [15]: > 128 µg/mL

SMILES: Cc1c(CN(C)C(=O)/C=C/c2cnc3c(c2)CC[C@H](N)C(=O)N3)oc2ccccc12 [fabimycin]
- MIC ([1]; E. coli ΔtolC = JW5503, efflux-deficient): 0.016 µg/mL (≈ 0.0396 µM)
- Ki [2]: 8 ± 2 nM
- difference in potency between fabimycin and (R)-7 against purified E. coli FabI ([2]; fabimycin relative to (R)-7): 4.75 fold
- Ki [3]: 17 ± 3 nM
- MIC [4]: 4 µg/mL (≈ 9.89 µM)
- MIC [5]: 2 µg/mL (≈ 4.94 µM)
- MIC [6]: 2 µg/mL (≈ 4.94 µM)
- MIC [7]: 4 µg/mL (≈ 9.89 µM)
- MIC [8]: 0.004 µg/mL (≈ 0.00989 µM)
- MIC [9]: 4 µg/mL (≈ 9.89 µM)
- MIC [10]: 1 µg/mL (≈ 2.47 µM)
- MIC [11]: 4 µg/mL (≈ 9.89 µM)
- MIC [12]: 2 µg/mL (≈ 4.94 µM)
- MIC [13]: 4 µg/mL (≈ 9.89 µM)
- MIC [14]: 4 µg/mL (≈ 9.89 µM)
- MIC [15]: 4 µg/mL (≈ 9.89 µM)

SMILES: Cc1c(CN(C)C(=O)/C=C/c2cnc3c(c2)CCCC(=O)N3)oc2ccccc12 [compound 10]
- MIC ([1]; Escherichia coli): 0.031 µg/mL (≈ 0.0796 µM)
- Ki [2]: 131 ± 22 nM
- Ki [3]: 487 ± 101 nM
- MIC [4]: 32 µg/mL (≈ 82.2 µM)
- MIC [5]: 8 µg/mL (≈ 20.5 µM)
- MIC [6]: 16 µg/mL (≈ 41.1 µM)
- MIC [7]: > 32 µg/mL
- MIC [8]: 0.002 µg/mL (≈ 0.00514 µM)
- MIC [9]: 16 µg/mL (≈ 41.1 µM)
- MIC [10]: 8 µg/mL (≈ 20.5 µM)
- MIC [11]: 16 µg/mL (≈ 41.1 µM)
- MIC [12]: 8 µg/mL (≈ 20.5 µM)
- MIC [13]: 16 µg/mL (≈ 41.1 µM)
- MIC [14]: 16 µg/mL (≈ 41.1 µM)
- MIC [15]: 32 µg/mL (≈ 82.2 µM)
